This passage reports IC50, Viability and AC50 results from patent US20240409536A1, “COMPOUNDS AND METHODS FOR MODULATING SPLICING” (REMIX THERAPEUTICS INC., priority 2021, published 2024).

pIC50: −log10 of the molar value.

One data set relates to HiBiT-tagged MYB protein. Kind of data set: HiBiT protein abundance assay, MYB (K562 HiBiT knock-in cells). Format: cell-based, human. As to conditions: 24 hours. The method, boiled down:
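Luminescent readout of HiBiT-tagged endogenous protein after lysis, following 24 h compound exposure of knock-in K562 lines at 37 °C. Ten 3-fold concentrations from 10 μM final, DMSO ≤0.25%. Four-parameter logistic fit of normalized response gives concentration halving abundance (IC50).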
On the technique in general: With HiBiT, luminescence reflects the tagged protein that the partner subunit can reach.

In another data set the test system is K562 cells. Kind of data set: Cell Titer Glo 2.0 cell viability assay in K562 cells. As to conditions: 72 hours. Background: In ATP-based viability assays light output follows the ATP content of the culture.
Another data set deals with Target C. Kind of data set: HiBiT protein abundance assay, Target C (K562 HiBiT knock-in cells). In kind it is cell-based, human. The following applies: 24 hours. The method, boiled down:
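Protein abundance read by HiBiT lytic luminescence after 24 h compound exposure (37 °C) of knock-in K562 cells, 10000 cells/well in IMDM+1% FBS. Dosing: 10 points, 3-fold, top 10 μM final, ≤0.25% DMSO. Four-parameter logistic fit gave concentration reducing abundance to 50% of untreated control.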

The next data set deals with HTT mRNA. Kind of data set: Splicing RT-qPCR assay, HTT canonical (CJ) and alternative (AJ) junction mRNA. In kind it is cell-based. The following applies: Homo sapiens, A673 or K562 cells, 24 hours; for pIC50: decrease in canonical junction mRNA; for AC50: increase in alternative junction mRNA. The method, boiled down:
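RT-qPCR read-out: CJ and AJ junction isoforms quantified from cell lysates, normalized to housekeeping GAPDH/GUSB (K562) or PPIA (A673). Cells had 24 h compound exposure, 11-point 3-fold series from 10 uM final, ≤0.25% DMSO.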
In general terms: Quantitative PCR measures a nucleic acid by following its amplification.

Broadly, the pIC50 is −log10 of the IC50, conventionally taken in molar units. Low readings indicate a high IC50, high ones a low IC50. One may read the AC50 as the concentration giving half of the maximal activity seen. Read a low AC50 as greater potency. For the compound `CNC1CCN(c2ccc(C(=O)Nc3cc(F)c4nc(C)cn4c3)c3ncc(OC)nc23)C1` (stereo in doubt) [Compound 227, (R)—N-(8-fluoro-2-methylimidazo[1,2-a]pyridin-6-yl)-2-methoxy-8-(3-(methylamino)pyrrolidin-1-yl)quinoxaline-5-carboxamide 2,2,2-trifluoroacetate], the figures for the pIC50 with HiBiT-tagged MYB protein, in the data set on Target C and in the data set with HTT mRNA were 6.00 to 7.00, 6.00 to 7.00 and below 5.00, respectively. Also, the Viability result in the data set with K562 cells was “A (A represents <100 nM)”. This compound registered an AC50 in the data set with HTT mRNA above 10 µM.
`Cc1cn2cc(NC(=O)c3ccc(N4CCC(NC(C)(C)C)C4)c4ccnnc34)cc(F)c2n1` (centres unmarked) [Compound 109]: the pIC50 in the data set with HiBiT-tagged MYB protein, in the data set with Target C and in the data set on HTT mRNA was 5.00 to 6.00 throughout. The compound further showed a half-maximal activity concentration (AC50) in the data set on HTT mRNA of 1 to 10 µM.
As to `Cc1cnc2c(C(=O)Nc3cc(F)c4nc(C)cn4c3)ccc(N3C[C@@H](C)N[C@@H](C)C3)c2n1` [Compound 217, 8-((3R,5S)-3,5-dimethylpiperazin-1-yl)-N-{8-fluoro-2-methylimidazo[1,2-a]pyridin-6-yl}-2-methylquinoxaline-5-carboxamide], the values for the pIC50 in the data set on HiBiT-tagged MYB protein and in the data set with Target C were above 7.00 and 6.00 to 7.00, respectively. Further, the Viability entry in the data set on K562 cells is listed as “B (B represents 100-1000 nM)”.
Consider `CCNC1CCN(c2ccc(C(=O)Nc3cc(F)c4nc(C)cn4c3)c3nc(C)ccc23)CC1` [Compound 228, 5-[4-(ethylamino)piperidin-1-yl]-N-{8-fluoro-2-methylimidazo[1,2-a]pyridin-6-yl}-2-methylquinoline-8-carboxamide], for which the pIC50 was above 7.00 in the data set on HiBiT-tagged MYB protein, 6.00 to 7.00 in the data set on Target C and 6.00 to 7.00 with HTT mRNA. Further, the Viability entry in the data set with K562 cells is “A (A represents <100 nM)”. This compound also gave an AC50 with HTT mRNA of 0.1 to 1 µM.
Take `COCCOc1ccc2c(N3CCC(N(C)C)CC3)ccc(C(=O)Nc3cc(F)c4nc(C)cn4c3)c2n1` [Compound 229, 5-[4-(dimethylamino)piperidin-1-yl]-N-{8-fluoro-2-methylimidazo[1,2-a]pyridin-6-yl}-2-(2-methoxyethoxy)quinoline-8-carboxamide]: the values for the pIC50 in the data set on HiBiT-tagged MYB protein, in the data set on Target C and with HTT mRNA were above 7.00, below 5.00 and below 5.00, respectively. Also, in the data set on K562 cells, the Viability entry is “A (A represents <100 nM)”. In the data set with HTT mRNA, this compound had an AC50 above 10 µM.
As to `Cc1cn2cc(NCc3ccc(N4CCNCC4)c4ccnnc34)cc(F)c2n1` [Compound 230, 8-fluoro-2-methyl-N-{[5-(piperazin-1-yl)cinnolin-8-yl]methyl}imidazo[1,2-a]pyridin-6-amine], the values for the pIC50 with HiBiT-tagged MYB protein, with Target C and with HTT mRNA were below 5.00, below 5.00 and 5.00 to 6.00, respectively. In addition, in the data set with K562 cells, the Viability result is “D (D represents greater than 10 μM in K562 cells)”. Further, the AC50 in the data set on HTT mRNA was above 10 µM.
With `CNC1CCN(c2ccc(C(=O)Nc3cc(F)c4nc(C)cn4c3)c3nnccc23)C1` (centres unmarked) [Compound 231, N-{8-fluoro-2-methylimidazo[1,2-a]pyridin-6-yl}-5-[3-(methylamino)pyrrolidin-1-yl] cinnoline-8-carboxamide], the figures for the pIC50 in the data set on HiBiT-tagged MYB protein, with Target C and in the data set with HTT mRNA were above 7.00, 5.00 to 6.00 and 5.00 to 6.00, respectively. In addition, the Viability entry with K562 cells was “B (B represents 100-1000 nM)”. The compound further gave a half-maximal activity concentration (AC50) with HTT mRNA of 1 to 10 µM.
As to `COCCOc1ccc2c(N3C[C@@H](C)N[C@@H](C)C3)ccc(C(=O)Nc3cc(F)c4nc(C)cn4c3)c2n1` [Compound 232, 5-[(3R,5S)-3,5-dimethylpiperazin-1-yl]-N-{8-fluoro-2-methylimidazo[1,2-a]pyridin-6-yl}-2-(2-methoxyethoxy)quinoline-8-carboxamide], the pIC50 with HiBiT-tagged MYB protein is above 7.00; with Target C, 5.00 to 6.00; in the data set with HTT mRNA it was 5.00 to 6.00. Moreover, the AC50 with HTT mRNA is 1 to 10 µM.
On to `CCNC1CCN(c2ccc(C(=O)Nc3cc(F)c4nc(C)cn4c3)c3nc(OCCOC)ccc23)CC1` [Compound 233, 5-[4-(ethylamino)piperidin-1-yl]-N-{8-fluoro-2-methylimidazo[1,2-a]pyridin-6-yl}-2-(2-methoxyethoxy)quinoline-8-carboxamide], for which the negative-log IC50 (pIC50) was above 7.00 in the data set on HiBiT-tagged MYB protein, 5.00 to 6.00 in the data set on Target C and 5.00 to 6.00 in the data set on HTT mRNA. In the data set on K562 cells, the Viability entry is listed as “A (A represents <100 nM)”. In addition, in the data set on HTT mRNA, the AC50 lay in the range of 1 to 10 µM.
